Measured values taken from patent US9266844B2 (priority 2012, dated 2016).
Entries after “also recorded” stand apart in the source; their conditions may differ. Where two headings read alike, the source gives them in different places.

What was measured:
[1] = target: SARS-CoV nsp13 helicase (Severe acute respiratory syndrome coronavirus, UniProt P0C6X7); assay: biochemical
[2] = target: HCV NS3h helicase (Hepatitis C virus genotype 1a, UniProt P27958); type: biochemical
[3] = target: Dengue virus NS3 helicase (Dengue virus type 2, UniProt P14340); type: biochemical
[4] = target: FMDV 3Dpol (Foot-and-mouth disease virus serotype O, UniProt P03305); type: biochemical
[5] = target: MoMLV Reverse Transcriptase (Moloney murine leukemia virus, UniProt P03355); type: biochemical
[6] = target: Klenow fragment of E. coli DNA polymerase I (KF) (Escherichia coli, UniProt P00582); type: biochemical
[7] = target: T1, nsp13 (Severe acute respiratory syndrome coronavirus, UniProt P0C6X7); assay: biochemical; type: biochemical, SARS-CoV
[8] = target: T1, nsp13; type: binding, SARS-CoV
[9] = target: T1, nsp13; type: biochemical, SARS-CoV
[10] = test system: dsDNA (31/18-mer); type: binding
[11] = test system: SARS-CoV replicon; assay: microbe, parasite or virus in culture; type: cell-based; conditions: read-out: EC50 Replicon (RT-qPCR)
[12] = test system: SARS-CoV replicon; type: cell-based
[13] = test system: RNA pol II/CMV promoter; type: cell-based
[14] = target: WT-nsp13 (Severe acute respiratory syndrome coronavirus, UniProt P0C6X7); assay: biochemical
[15] = test system: HEK293T cells
[16] = test system: HEK 293T cells
[17] = in vitro; conditions: human

Chain of Klenow fragment of E. coli DNA polymerase I (KF) (P00582 324-928): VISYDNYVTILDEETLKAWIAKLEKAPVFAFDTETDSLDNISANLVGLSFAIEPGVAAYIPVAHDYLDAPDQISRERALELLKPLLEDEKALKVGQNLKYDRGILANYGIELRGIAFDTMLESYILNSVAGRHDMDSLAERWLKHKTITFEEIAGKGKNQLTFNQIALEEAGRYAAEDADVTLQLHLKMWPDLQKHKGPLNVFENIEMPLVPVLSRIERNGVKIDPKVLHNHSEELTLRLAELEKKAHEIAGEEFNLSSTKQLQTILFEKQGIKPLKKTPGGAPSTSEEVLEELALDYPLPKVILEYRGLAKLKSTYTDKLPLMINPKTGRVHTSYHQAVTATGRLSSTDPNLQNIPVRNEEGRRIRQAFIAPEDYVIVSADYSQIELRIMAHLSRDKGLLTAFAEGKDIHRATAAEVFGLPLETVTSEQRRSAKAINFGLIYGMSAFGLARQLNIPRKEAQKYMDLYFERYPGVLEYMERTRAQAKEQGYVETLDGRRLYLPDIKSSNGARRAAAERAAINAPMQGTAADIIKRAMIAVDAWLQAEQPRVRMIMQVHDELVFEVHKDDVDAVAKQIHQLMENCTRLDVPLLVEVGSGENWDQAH
Chain of HCV NS3h helicase (P27958 1193-1657 limits assumed): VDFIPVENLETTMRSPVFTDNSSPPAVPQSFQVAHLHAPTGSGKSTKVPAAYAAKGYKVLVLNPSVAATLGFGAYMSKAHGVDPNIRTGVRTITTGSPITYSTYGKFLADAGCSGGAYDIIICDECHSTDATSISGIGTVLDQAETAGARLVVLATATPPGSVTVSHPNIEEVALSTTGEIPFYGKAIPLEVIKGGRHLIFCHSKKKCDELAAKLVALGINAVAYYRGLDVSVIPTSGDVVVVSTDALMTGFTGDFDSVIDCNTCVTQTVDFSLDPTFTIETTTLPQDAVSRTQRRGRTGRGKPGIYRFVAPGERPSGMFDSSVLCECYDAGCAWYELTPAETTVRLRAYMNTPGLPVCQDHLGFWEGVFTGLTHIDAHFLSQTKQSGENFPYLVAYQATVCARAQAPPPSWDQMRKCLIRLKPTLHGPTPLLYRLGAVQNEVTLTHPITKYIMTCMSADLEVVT
Chain of FMDV 3Dpol (P03305 1863-2332 limits assumed): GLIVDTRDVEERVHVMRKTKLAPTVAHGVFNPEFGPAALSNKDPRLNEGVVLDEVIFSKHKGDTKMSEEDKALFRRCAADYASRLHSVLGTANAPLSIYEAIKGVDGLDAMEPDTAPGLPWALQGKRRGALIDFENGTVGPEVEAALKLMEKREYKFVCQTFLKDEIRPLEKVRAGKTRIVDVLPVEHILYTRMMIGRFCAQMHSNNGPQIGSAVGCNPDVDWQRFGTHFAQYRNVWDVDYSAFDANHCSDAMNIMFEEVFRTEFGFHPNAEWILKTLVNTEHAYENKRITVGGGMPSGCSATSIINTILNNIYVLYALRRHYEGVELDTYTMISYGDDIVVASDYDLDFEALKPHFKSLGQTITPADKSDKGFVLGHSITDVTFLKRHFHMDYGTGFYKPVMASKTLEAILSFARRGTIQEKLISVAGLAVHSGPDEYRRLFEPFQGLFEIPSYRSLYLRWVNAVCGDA
Chain of Dengue virus NS3 helicase (P14340 1476-2093 limits assumed): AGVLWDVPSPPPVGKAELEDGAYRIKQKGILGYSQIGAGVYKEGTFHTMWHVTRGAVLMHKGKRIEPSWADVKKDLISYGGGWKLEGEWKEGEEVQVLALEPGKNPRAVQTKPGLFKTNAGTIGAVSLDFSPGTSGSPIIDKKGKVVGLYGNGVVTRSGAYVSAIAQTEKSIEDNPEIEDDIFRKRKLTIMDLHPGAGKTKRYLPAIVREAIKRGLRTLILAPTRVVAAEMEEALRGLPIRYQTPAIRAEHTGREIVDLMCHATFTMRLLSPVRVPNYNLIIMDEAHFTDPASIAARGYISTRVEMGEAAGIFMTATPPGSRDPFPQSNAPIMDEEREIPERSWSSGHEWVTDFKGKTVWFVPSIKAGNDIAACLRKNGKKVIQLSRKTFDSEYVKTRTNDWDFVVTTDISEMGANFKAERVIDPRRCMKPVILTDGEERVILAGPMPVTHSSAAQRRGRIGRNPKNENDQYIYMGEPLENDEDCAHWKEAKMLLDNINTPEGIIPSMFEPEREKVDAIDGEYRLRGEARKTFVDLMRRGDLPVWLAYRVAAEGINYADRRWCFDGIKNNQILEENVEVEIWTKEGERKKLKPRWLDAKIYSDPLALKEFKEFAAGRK

## C=CCn1c(S)nnc1CSc1ccccc1[N+](=O)[O-] [SSYA10-001, 3-[(2-nitrophenyl)sulfanylmethyl]-4-prop-2-enyl-1H-1,2,4-triazole-5-thione]
[1]; IC50 DNA (nsp13 unwinding)
  IC50: 5.3 ± 2 µM
[1]; IC50 RNA (nsp13 unwinding)
  IC50: 5.7 ± 2.3 µM
[1]; IC50 SARS-CoV RNA (nsp13 unwinding)
  IC50: 5.6 ± 0.5 µM
[1]; read-out: inhibition of the helicase activity
  inhibition at 20 µM: ~100%
[2]
  inhibition of HCV NS3h helicase activity: did not inhibit; also recorded: specific for SARS-CoV helicase
[3]
  inhibition of Dengue virus NS3 helicase activity: specific for SARS-CoV helicase
[4]
  inhibition of FMDV 3Dpol polymerase: did not cause inhibition
[5]
  inhibition of MoMLV Reverse Transcriptase: did not cause inhibition
[6]
  effect on KF polymerization and strand displacement (nucleic acid binding of the substance): did not prevent
  inhibition of KF polymerase: did not cause inhibition
[7]
  Ki: 6 ± 1.7 µM
  mode of inhibition with respect to ATP and nucleic acid substrates: non-competitive
[8]
  effect on nsp13 binding to DNA: did not affect
[9]
  effect on ATP hydrolysis by nsp13: did not affect
[10]
  change of pico green fluorescent counts with dsDNA: did not change
[11]; Severe acute respiratory syndrome coronavirus, HEK-293T, 48 h
  EC50: 8.95 µM
[11]
  EC50: ~9 µM
[12]
  effect on SARS-CoV replication (RNase protection assay): interfered with SARS-CoV replication
[13]
  amount of RNA synthesized in NRC-transfected cells with vs without compound: No difference was observed
[14]
  IC50: 6 µM
[15]
  cytotoxicity at 250 μM: No cytotoxicity was observed
[16]
  cytostatic effect (cell proliferation): did not interfere with the proliferation
[17]
  CC50: > 250 µM
